From publication PMC5011342, “A high throughput drug screening assay to identify compounds that promote oligodendrocyte differentiation using acutely dissociated and purified oligodendrocyte precursor cells” (BMC Research Notes, 2016)
Like-named read-outs stand apart in the source and are kept apart here.

Experiments:
[1] = test system: acutely dissociated and purified rat OPCs; assay: Acute OL differentiation assay (MBP expression/cell, immunofluorescent image quantification); format: cell-based; conditions: for activation at 0.08 µM: 0.08 uM test compound, read-out: OL differentiation, 0.08 uM (% Quet)
How it was run: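 This acute differentiation assay used purified rat OPCs from postnatal day 6–7 pups, seeded into PDL/laminin-coated 96-well plates in differentiation medium lacking PDGF and FGF. Compounds were applied in quadruplicate after a 1–2 h preincubation at 37 °C, 10 % CO2, with 0.1 % DMSO negative and 40 ng/ml T3 positive controls in eight wells. After fixation on DIV4, anti-MBP immunofluorescence images yielded MBP expression/cell.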

expanded OPCs = assay: cells; conditions: for viability at 0.1 µM / viability at 1 µM / viability at 10 µM: Rattus norvegicus, 72 h; for 0.1 µM (% DMSO) / 1 µM (% DMSO) / 10 µM (% DMSO): alamarBlue viability of expanded OPCs; for 0.1 µM (% DMSO): compound at 0.1 µM; for 1 µM (% DMSO): compound at 1 µM; for 10 µM (% DMSO): compound at 10 µM
How it was run: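 Toxicity screen: compounds added at 0.1, 1 and 10 µM to PDGF-AA-expanded OPCs in 96-well plates, 3-day incubation at 37 °C, 10% CO2, then alamarBlue 1:10 for 4 h with fluorescence readout. Results set screening doses of 10/2, 2/0.4 or 0.4/0.08 µM.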

[2] = Rattus norvegicus, test compound at 2 uM, NCC library screen, sheet "All OLga data", relative to quetiapine, read-out: 2 uM (% Quet)
[3] = Rattus norvegicus, test compound at 10 uM, NCC library screen, sheet "All OLga data", relative to quetiapine, read-out: 10 uM (% Quet)
[4] = read-out: 0.1 µM (% DMSO), alamarBlue viability, NCC library compound at 0.1 µM, sheet "All Tox data"
[5] = read-out: 1 µM (% DMSO), alamarBlue viability, NCC library compound at 1 µM, sheet "All Tox data"
[6] = read-out: 10 µM (% DMSO), alamarBlue viability, NCC library compound at 10 µM, sheet "All Tox data"
[7] = Rattus norvegicus, test compound at 2 uM, MBP expression relative to quetiapine, NCC library screen, sheet "All OLga data", read-out: 2 uM (% Quet)
[8] = Rattus norvegicus, test compound at 10 uM, MBP expression relative to quetiapine, NCC library screen, sheet "All OLga data", read-out: 10 uM (% Quet)
[9] = Rattus norvegicus, 0.4 uM test compound, relative to quetiapine, sheet "All OLga data", read-out: OL differentiation, 0.4 uM (% Quet)
[10] = Rattus norvegicus, 2 uM test compound, relative to quetiapine, sheet "All OLga data", read-out: OL differentiation, 2 uM (% Quet)
[11] = read-out: 0.1 µM (% DMSO), alamarBlue viability of expanded OPCs, compound at 0.1 µM, sheet All Tox data
[12] = read-out: 1 µM (% DMSO), alamarBlue viability of expanded OPCs, compound at 1 µM, sheet All Tox data
[13] = read-out: 10 µM (% DMSO), alamarBlue viability of expanded OPCs, compound at 10 µM, sheet All Tox data
[14] = Rattus norvegicus, 10 uM test compound, relative to quetiapine, sheet "All OLga data", read-out: OL differentiation, 10 uM (% Quet)
[15] = Rattus norvegicus, test compound at 0.4 uM, NCC library screen, sheet "All OLga data", relative to quetiapine, read-out: 0.4 uM (% Quet)
[16] = Rattus norvegicus, relative to quetiapine, sheet "All OLga data"

| SMILES | activation at 2 µM [1, 2] | activation at 10 µM [1, 3] | viability at 0.1 µM (expanded OPCs; [4]) | viability at 1 µM (expanded OPCs; [5]) | viability at 10 µM (expanded OPCs; [6]) | 0.1 µM (% DMSO) (expanded OPCs; relative to DMSO control) | 1 µM (% DMSO) (expanded OPCs; relative to DMSO control) | 10 µM (% DMSO) (expanded OPCs; relative to DMSO control) | also measured |
| --- | --- | --- | --- | --- | --- | --- | --- | --- | --- |
| C[C@@H]1C[C@H]2[C@@H]3CCC4=CC(=O)C=C[C@]4(C)[C@@]3(F)[C@@H](O)C[C@]2(C)[C@H]1C(=O)CO [Desoximetasone] | -17.9% | -33% | 111% | 114% | 111% | – | – | – | – |
| C[C@@H]1C[C@H]2[C@@H]3CCC4=CC(=O)C=C[C@]4(C)[C@@]3(F)[C@@H](O)C[C@]2(C)[C@@]1(O)C(=O)CO [Dexamethasone] | – | – | – | – | – | 108.6 % DMSO | 109.4 % DMSO | 109.8 % DMSO | activation at 2 µM [1, 7]: 1.1%; activation at 10 µM [1, 8]: -24.5% |
| C[C@@H]1C[C@H]2[C@@H]3CCC4=CC(=O)C=C[C@]4(C)[C@@]3(F)[C@@H](O)C[C@]2(C)[C@@]1(O)C(=O)CO [Dexamethazone] | – | – | – | – | – | 115.8 % DMSO | 108.1 % DMSO | 98.4 % DMSO | 2 uM (% Quet) ([1]; test compound at 2 uM, MBP expression relative to quetiapine, NCC library screen, sheet "All OLga data"): -1.3 % Quet; 10 uM (% Quet) ([1]; test compound at 10 uM, MBP expression relative to quetiapine, NCC library screen, sheet "All OLga data"): -8.3 % Quet |
| COc1ccc2c(c1)[C@]13CCCC[C@@H]1[C@H](C2)N(C)CC3 [Dextromethorphan] | – | – | – | – | – | – | – | – | activation at 0.4 µM [1, 9]: 10.5%; activation at 2 µM [1, 10]: 44.5%; viability at 0.1 µM (expanded OPCs; [11]): 82.6%; viability at 1 µM (expanded OPCs; [12]): 86.9%; viability at 10 µM (expanded OPCs; [13]): 59.6% |
| CN1C(=O)CN=C(c2ccccc2)c2cc(Cl)ccc21 [Diazepam] | – | – | – | – | – | – | – | – | activation at 2 µM ([1]; Rattus norvegicus, read-out: 2 uM (% Quet)): 3.8%; activation at 10 µM ([1]; Rattus norvegicus, read-out: 10 uM (% Quet)): -14.1%; viability at 0.1 µM (expanded OPCs; read-out: 0.1 µM (% DMSO)): 92.5%; viability at 1 µM (expanded OPCs; read-out: 1 µM (% DMSO)): 97.2%; viability at 10 µM (expanded OPCs; read-out: 10 µM (% DMSO)): 102% |
| CC1=NS(=O)(=O)c2cc(Cl)ccc2N1 [Diazoxide] | -1.9% | -7.1% | 98.9% | 86.5% | 82.6% | – | – | – | – |
| O=C(O)C(Cl)Cl [Dichloroacetic Acid] | 0.66% | 13.7% | 99.2% | 83.6% | 83.5% | – | – | – | – |
| O=C(O)Cc1ccccc1Nc1c(Cl)cccc1Cl [Diclofenac] | – | – | – | – | – | – | – | – | activation at 2 µM [1, 10]: 4.8%; activation at 10 µM [1, 14]: 3.4%; viability at 0.1 µM (expanded OPCs; [11]): 90.1%; viability at 1 µM (expanded OPCs; [12]): 95.5%; viability at 10 µM (expanded OPCs; [13]): 88.8% |
| Cc1onc(-c2c(Cl)cccc2Cl)c1C(=O)N[C@@H]1C(=O)N2[C@@H]1SC(C)(C)[C@@H]2C(=O)O [Dicloxacillin] | – | – | – | – | – | 93.5 % DMSO | 91.4 % DMSO | 76.5 % DMSO | activation at 2 µM [1, 7]: -0.7%; activation at 10 µM [1, 8]: -16.9% |
| CCN(CC)CCOC(=O)C1(C2CCCCC2)CCCCC1 [Dicyclomine] | 32.1% | – | – | – | – | 99.8 % DMSO | 87.7 % DMSO | 52.8 % DMSO | activation at 0.4 µM [1, 15]: -5.5% |
| O=C(O)c1cc(-c2ccc(F)cc2F)ccc1O [Diflunisal] | 5.6% | – | – | – | – | 94.0 % DMSO | 92.0 % DMSO | 35.0 % DMSO | activation at 0.4 µM [1, 15]: 0.3% |
| C[C@H]1O[C@@H](O[C@H]2[C@@H](O)C[C@H](O[C@H]3[C@@H](O)C[C@H](O[C@H]4CC[C@@]5(C)[C@H](CC[C@@H]6[C@@H]5C[C@@H](O)[C@]5(C)[C@@H](C7=CC(=O)OC7)CC[C@]65O)C4)O[C@@H]3C)O[C@@H]2C)C[C@H](O)[C@@H]1O [Digoxin] | -10.3% | 22.8% | 103% | 99.8% | 106% | – | – | – | – |
| COc1ccc([C@@H]2Sc3ccccc3N(CCN(C)C)C(=O)[C@@H]2OC(C)=O)cc1 [Diltiazem] | -2.4% | – | – | – | – | 81.4 % DMSO | 67.2 % DMSO | 48.7 % DMSO | activation at 0.4 µM [1, 15]: -12.2% |
| CN(C)CCOC(c1ccccc1)c1ccccc1 [Diphenhydramine] | – | – | – | – | – | – | – | – | activation at 2 µM [1, 10]: 3.5%; activation at 10 µM [1, 14]: 30%; viability at 0.1 µM (expanded OPCs; [11]): 79.3%; viability at 1 µM (expanded OPCs; [12]): 80%; viability at 10 µM (expanded OPCs; [13]): 62.4% |
| CCOC(=O)C1(c2ccccc2)CCN(CCC(C#N)(c2ccccc2)c2ccccc2)CC1 [Diphenoxylate] | – | – | 85.6% | 27.7% | 23.2% | – | – | – | activation at 0.08 µM [1, 16]: -3.7%; activation at 0.4 µM [1, 9]: 12% |
| O=c1c(-c2ccccc2)c1-c1ccccc1 [Diphenylcyclopropenone] | – | – | – | – | – | – | – | – | activation at 0.4 µM [1, 9]: 8.6%; viability at 0.1 µM (expanded OPCs; [11]): 73.9%; viability at 1 µM (expanded OPCs; [12]): 65%; viability at 10 µM (expanded OPCs; [13]): 11.7% |
| OCCN(CCO)c1nc(N2CCCCC2)c2nc(N(CCO)CCO)nc(N3CCCCC3)c2n1 [Dipyridamole] | 13.5% | -27.3% | – | – | – | 107.4 % DMSO | 102.2 % DMSO | 87.5 % DMSO | – |
| CC(C)N(CCC(C(N)=O)(c1ccccc1)c1ccccn1)C(C)C (stereo not shown) [Disopyramide] | – | – | – | – | – | 89.6 % DMSO | 92.1 % DMSO | 88.7 % DMSO | activation at 2 µM [1, 7]: -10.1%; activation at 10 µM [1, 8]: -11.2% |
| O=C1c2c(O)cc(O)cc2OC(c2ccc(O)c(O)c2)C1O (stereo not shown) [Distylin] | – | – | – | – | – | – | – | – | OL differentiation, 2 uM (% Quet) ([1]; 2 uM test compound, relative to quetiapine, sheet "All OLga data"): 7.2 % Quet; OL differentiation, 10 uM (% Quet) ([1]; 10 uM test compound, relative to quetiapine, sheet "All OLga data"): -26.1 % Quet; 0.1 µM (% DMSO) (expanded OPCs; sheet All Tox data): 109.5 % DMSO; 1 µM (% DMSO) (expanded OPCs; sheet All Tox data): 92.1 % DMSO; 10 µM (% DMSO) (expanded OPCs; sheet All Tox data): 99.3 % DMSO |
| CCN(CC)C(=S)SSC(=S)N(CC)CC [Disulfiram] | – | – | – | – | – | – | – | – | activation at 0.4 µM [1, 9]: -180%; viability at 0.1 µM (expanded OPCs; [11]): 22.6%; viability at 1 µM (expanded OPCs; [12]): 18.1%; viability at 10 µM (expanded OPCs; [13]): 13.8% |
| CC(=O)O[C@@]12CO[C@@H]1C[C@H](O)[C@@]1(C)C(=O)[C@H](O)C3=C(C)[C@@H](OC(=O)[C@H](O)[C@@H](NC(=O)OC(C)(C)C)c4ccccc4)C[C@@](O)([C@@H](OC(=O)c4ccccc4)[C@H]21)C3(C)C [Docetaxel] | – | – | – | – | – | – | – | – | activation at 0.08 µM [1, 16]: -94.4%; activation at 0.4 µM [1, 9]: -105%; viability at 0.1 µM (expanded OPCs; [11]): 39.1%; viability at 1 µM (expanded OPCs; [12]): 38.8%; viability at 10 µM (expanded OPCs; [13]): 47.6% |
| CN(CCOc1ccc(NS(C)(=O)=O)cc1)CCc1ccc(NS(C)(=O)=O)cc1 [Dofetilide, reference compound] | 19.4% | 31.8% | 96.1% | 98% | 122% | – | – | – | EC50 ([1]; Rattus norvegicus, average EC50 for induction of OL differentiation from independent biological replicates, eight concentrations): 14 µM; hit in OL differentiation assay, MRF-TMC ([1]; ● = confirmed hit in this paper's assay): ● |
| O=C(O[C@@H]1C[C@@H]2C[C@H]3C[C@H](C1)N2CC3=O)c1c[nH]c2ccccc12 [Dolasetron] | 4.6% | 18.1% | 81% | 81.8% | 63.4% | – | – | – | – |
| NCCc1ccc(O)c(O)c1 [Dopamine] | -24.9% | – | 87% | 74.7% | 51.7% | – | – | – | activation at 0.4 µM [1, 15]: 3.4% |
| CCN1CC(CCN2CCOCC2)C(c2ccccc2)(c2ccccc2)C1=O (stereo not shown) [Doxapram] | -8.9% | 14.8% | 89% | 89.2% | 79.9% | – | – | – | – |
| COc1cc2nc(N3CCN(C(=O)C4COc5ccccc5O4)CC3)nc(N)c2cc1OC (stereo not shown) [Doxazosin] | – | – | – | – | – | 140.5 % DMSO | 157.6 % DMSO | 18.9 % DMSO | activation at 0.4 µM ([1]; Rattus norvegicus, test compound at 0.4 uM, MBP expression relative to quetiapine, NCC library screen, sheet "All OLga data", read-out: 0.4 uM (% Quet)): 2%; activation at 2 µM [1, 7]: -27.2% |
